Publication PMC7027535 (Journal of Pineal Research, 2020)

Target: T1, Notum (Homo sapiens, UniProt Q6P988, C330S)
T1 sequence (Q6P988 81-451 C330S): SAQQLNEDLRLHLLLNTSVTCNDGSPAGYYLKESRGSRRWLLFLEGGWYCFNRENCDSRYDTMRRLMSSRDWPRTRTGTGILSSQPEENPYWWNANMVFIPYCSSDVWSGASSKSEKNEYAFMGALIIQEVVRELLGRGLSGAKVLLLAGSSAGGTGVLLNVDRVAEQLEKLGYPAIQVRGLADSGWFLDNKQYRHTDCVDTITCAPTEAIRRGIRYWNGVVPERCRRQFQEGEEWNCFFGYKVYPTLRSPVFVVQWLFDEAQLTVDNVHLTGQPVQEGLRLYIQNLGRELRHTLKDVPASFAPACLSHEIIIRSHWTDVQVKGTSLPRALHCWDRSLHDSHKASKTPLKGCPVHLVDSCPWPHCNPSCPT
Experiment: X-ray crystal structure ([…] Å); thermal shift (Tm […] to […] °C); OPTS enzyme inhibition IC50
Type: biochemical

Structure (SMILES): CC(=O)NCCc1c[nH]c2ccc(O)cc12 [ASE, N‐acetylserotonin]
- IC50: 94 µM
